Biological target: soluble guanylate cyclase (human GUCYA3 and GUCYB3) overexpressed in CHO cells (Homo sapiens (Human), UniProt Q02108+Q02153)
Assay: CHO cellular assay (cGMP production, Cisbio cGMP HTRF kit)
Format: cell-based
Conditions: CHO GUCY clone 8E10, cGMP production, assay buffer with 1 mM IBMX and 20 uM ODQ, 1 h room temperature; minimum quantification limit 0.5 nM (listed 0.5 nM means ≤0.5 nM); read-out: EC50
Excerpt: Chinese hamster ovary (CHO) cells overexpressing soluble guanylate cyclase were generated to test the effect of sGC activators in a cellular context. Human cDNAs for GUCYA3 (RefSeq: NM_000856.3) and GUCYB3 (RefSeq: NM_000857.1) were amplified by PCR from a HUVEC (Human Umbilical Vein Endothelial Cells) cDNA library and cloned into mammalian expression vectors. CHO K1 cells (ATCC CCL-61) were transfected using Lipofectamine 2000 following manufacturer's instructions and stably expressing clones were identified by antibiotic selection. CHO GUCY clone 8E10 was used for subsequent experiments. Cells were seeded at a density of 3000 cells/well in white 384-well proxyplates (Perkin Elmer) and incubated overnight, then the medium was removed and cells were washed with assay buffer (HBSS, 0.1% BSA. 1 mM IBMX, 20 uM ODQ). sGC activators were serially diluted in DMSO, then diluted in assay buffer prior to adding to cells (10 ul/well, final DMSO concentration 0.5%). Cells were incubated with compounds for 1 h room temperature, then assayed for cGMP production using Cisbio cGMP HTRF kit (62GM2PEC) according to manufacturer's instructions. The EC50s are calculated based on the amount of cGMP interpolated from the standard curve, using a 4-parameter sigmoidal dose-response.

Sequence of soluble guanylate cyclase (human GUCYA3 and GUCYB3) overexpressed in CHO cells (Q02108 whole entry partner): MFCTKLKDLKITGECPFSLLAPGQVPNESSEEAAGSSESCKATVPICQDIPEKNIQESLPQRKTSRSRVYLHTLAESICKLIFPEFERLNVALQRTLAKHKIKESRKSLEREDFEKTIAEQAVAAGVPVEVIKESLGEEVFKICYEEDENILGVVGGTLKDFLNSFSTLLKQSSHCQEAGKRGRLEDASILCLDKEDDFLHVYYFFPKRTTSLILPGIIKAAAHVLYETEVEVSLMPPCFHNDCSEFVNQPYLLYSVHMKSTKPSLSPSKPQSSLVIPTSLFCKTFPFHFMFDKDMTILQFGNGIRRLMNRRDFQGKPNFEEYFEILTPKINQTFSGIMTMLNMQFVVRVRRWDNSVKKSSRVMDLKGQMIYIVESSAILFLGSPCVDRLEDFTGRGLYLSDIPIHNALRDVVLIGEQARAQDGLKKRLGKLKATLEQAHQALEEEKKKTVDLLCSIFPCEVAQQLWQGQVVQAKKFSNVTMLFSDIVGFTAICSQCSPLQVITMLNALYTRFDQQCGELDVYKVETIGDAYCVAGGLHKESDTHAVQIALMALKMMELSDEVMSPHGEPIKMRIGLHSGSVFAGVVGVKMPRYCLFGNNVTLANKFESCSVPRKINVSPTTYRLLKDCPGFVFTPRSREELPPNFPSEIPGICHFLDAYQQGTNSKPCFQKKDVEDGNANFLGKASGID
Sequence of soluble guanylate cyclase (human GUCYA3 and GUCYB3) overexpressed in CHO cells (Q02153 whole entry): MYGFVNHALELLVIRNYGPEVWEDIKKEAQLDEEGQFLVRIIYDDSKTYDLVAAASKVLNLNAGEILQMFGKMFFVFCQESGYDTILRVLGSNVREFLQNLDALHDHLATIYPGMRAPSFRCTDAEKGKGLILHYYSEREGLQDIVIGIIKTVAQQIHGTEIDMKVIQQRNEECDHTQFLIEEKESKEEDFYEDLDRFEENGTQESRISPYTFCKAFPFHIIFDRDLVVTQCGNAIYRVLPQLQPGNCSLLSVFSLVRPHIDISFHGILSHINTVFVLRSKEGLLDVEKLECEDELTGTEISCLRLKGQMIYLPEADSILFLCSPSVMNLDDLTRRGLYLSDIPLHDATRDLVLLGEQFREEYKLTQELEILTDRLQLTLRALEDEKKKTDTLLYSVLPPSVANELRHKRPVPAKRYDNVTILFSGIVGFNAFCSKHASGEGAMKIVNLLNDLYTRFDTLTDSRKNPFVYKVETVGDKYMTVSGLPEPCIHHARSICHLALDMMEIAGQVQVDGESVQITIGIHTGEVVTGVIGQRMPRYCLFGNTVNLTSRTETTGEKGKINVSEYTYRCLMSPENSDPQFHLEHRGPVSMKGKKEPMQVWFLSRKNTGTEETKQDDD

Row | Compound | EC50
1 | CCc1c(C(=O)O)cnn1-c1cccc(-c2cccc3c2N(Cc2ccc(C4CCN(C(=O)C5CC5)CC4)cc2C)CC3C)n1 (single isomer, unassigned; (+)) [(+)-20-2, (+)-1-(6-(1-(4-(1-(Cyclopropanecarbonyl)piperidin-4-yl)-2-methylbenzyl)-3-methylindolin-7-yl)pyridin-2-yl)-5-ethyl-1H-pyrazole-4-carboxylic acid] | 9.9 nM
2 | Cc1cc(C2CCN(C(=O)CC3CC3)CC2)ccc1NC1CCc2cccc(-c3cccc(-n4ncc(C(=O)O)c4C)n3)c21 (single isomer, unassigned; (+)) [(+)-46-3, (+)-1-(6-(3-((4-(1-(2-Cyclopropylacetyl)piperidin-4-yl)-2-methylphenyl)amino)-2,3-dihydro-1H-inden-4-yl)pyridin-2-yl)-5-methyl-1H-pyrazole-4-carboxylic acid] | 1 nM
3 | Cc1cc(C2CCN(C(=O)CC3CC3)CC2)c(F)cc1NC1CCc2cccc(-c3cccc(-n4ncc(C(=O)O)c4C)n3)c21 (single isomer, unassigned; (+)) [(+)-46-5, (+)-1-(6-(3-((4-(1-(2-Cyclopropylacetyl)piperidin-4-yl)-5-fluoro-2-methylphenyl)amino)-2,3-dihydro-1H-inden-4-yl)pyridin-2-yl)-5-methyl-1H-pyrazole-4-carboxylic acid] | 1 nM
4 | CCc1cc(NC2CCc3cccc(-c4cccc(-n5ncc(C(=O)O)c5CC)n4)c32)ccc1C1CCN(C(=O)OC)CC1 (single isomer, unassigned; (+)) [(+)-52-2, (+)-5-Ethyl-1-(6-(3-((3-ethyl-4-(1-(methoxycarbonyl)piperidin-4-yl)phenyl)amino)-2,3-dihydro-1H-inden-4-yl)pyridin-2-yl)-1H-pyrazole-4-carboxylic acid] | ≤ 0.5 nM
5 | C=CCOC(=O)N1CCC(c2ccc(NC3CCc4cccc(-c5cccc(-n6ncc(C(=O)O)c6CC)n5)c43)cc2CC)CC1 (single isomer, unassigned; (+)) [(+)-52-3] | ≤ 0.5 nM
6 | CCc1cc(NC2CCc3cccc(-c4cccc(-n5ncc(C(=O)O)c5CC)n4)c32)ccc1C1CCN(C(=O)C2CC2)CC1 (single isomer, unassigned; (+)) [(+)-53-1, (+)-1-(6-(3-((4-(1-(cyclopropanecarbonyl)piperidin-4-yl)-3-ethylphenyl)amino)-2,3-dihydro-1H-inden-4-yl)pyridin-2-yl)-5-ethyl-1H-pyrazole-4-carboxylic acid] | ≤ 0.5 nM
7 | CCc1cc(NC2CCc3cccc(-c4cccc(-n5ncc(C(=O)O)c5CC)n4)c32)ccc1C1CCN(C(=O)CC2CC2)CC1 (single isomer, unassigned; (+)) [(+)-53-2, (+)-1-(6-(3-((4-(1-(2-cyclopropylacetyl)piperidin-4-yl)-3-ethylphenyl)amino)-2,3-dihydro-1H-inden-4-yl)pyridin-2-yl)-5-ethyl-1H-pyrazole-4-carboxylic acid] | 1 nM
8 | Cc1cc(C2CCN(C(=O)CC3CC3)CC2)cc(F)c1NC1CCc2cccc(-c3cccc(-n4ncc(C(=O)O)c4C)n3)c21 (single isomer, unassigned; (+)) [(+)-53-3, (+)-1-(6-(3-((4-(1-(2-cyclopropyacetyl)piperidin-4-yl)-2-fluoro-6-methylphenyl)amino)-2,3-dihydro-1H-inden-4-yl)pyridin-2-yl)-5-methyl-1H-pyrazole-4-carboxylic acid] | 3.5 nM
9 | Cc1cc(C2CCN(C(=O)C3CC3)CC2)ccc1NC1CCc2cccc(-c3cccc(-n4ncc(C(=O)O)c4C(F)F)n3)c21 (single isomer, unassigned; (+)) [(+)-53-4, (+)-1-(6-(3-((4-(1-(cyclopropanecarbonyl)piperidin-4-yl)-2-methylphenyl)amino)-2,3-dihydro-1H-inden-4-yl)pyridin-2-yl)-5-(difluoromethyl)-1H-pyrazole-4-carboxylic acid] | ≤ 0.5 nM

The next lines start with the values.

Row | EC50 | Compound
10 | ≤ 0.5 nM | CCc1cc(CC2CCc3cccc(-c4cccc(-n5ncc(C(=O)O)c5C)c4)c32)ccc1C1CCN(C(=O)C2CC2)CC1 (single isomer, unassigned; (+)) [55-1 (+), (+)-1-(3-(3-(4-(1-(cyclopropanecarbonyl)piperidin-4-yl)-3-ethylbenzyl)-2,3-dihydro-1H-inden-4-yl)phenyl)-5-methyl-1H-pyrazole-4-carboxylic acid]
11 | ≤ 0.5 nM | Cc1nnc(N2CCC(c3ccc(NC4CCc5cccc(-c6cccc(-n7ncc(C(=O)O)c7C)n6)c54)c(C)c3)CC2)o1 (single isomer, unassigned; (+)) [58. b). (+), (+)-5-methyl-1-(6-(3-((2-methyl-4-(1-(5-methyl-1,3,4-oxadiazol-2-yl)piperidin-4-yl)phenyl)amino)-2,3-dihydro-1H-inden-4-yl)pyridin-2-yl)-1H-pyrazole-4-carboxylic acid]
12 | ≤ 0.5 nM | CCc1cc(CN2CC(C)c3cccc(-c4cccc(-n5ncc(C(=O)O)c5CC)n4)c32)ccc1C1CCN(C(=O)C2CC2)CC1 (single isomer, unassigned; (+)) [(+)-20-1, (+)-1-(6-(1-(4-(1-(Cyclopropanecarbonyl)piperidin-4-yl)-3-ethylbenzyl)-3-methylindolin-7-yl)pyridin-2-yl)-5-ethyl-1H-pyrazole-4-carboxylic acid]
13 | ≤ 0.5 nM | CCc1cc(CN2CC(C)c3cccc(-c4cccc(-n5ncc(C(=O)O)c5C)n4)c32)ccc1C1CCN(C(=O)C2CC2)CC1 (single isomer, unassigned; (+)) [(+)-20-3, (+)-1-(6-(1-(4-(1-(Cyclopropanecarbonyl)piperidin-4-yl)-3-ethylbenzyl)-3-methylindolin-7-yl)pyridin-2-yl)-5-methyl-1H-pyrazole-4-carboxylic acid]
14 | ≤ 0.5 nM | CCc1cc(NC2COc3cccc(-c4cccc(-n5ncc(C(=O)O)c5C(F)(F)F)n4)c32)ccc1C1CCN(C(=O)C2CC2)CC1 (single isomer, unassigned; (+)) [(+)-36-1, (+)-1-(6-(3-((4-(1-(Cyclopropanecarbonyl)piperidin-4-yl)-3-ethylphenyl)amino)-2,3-dihydrobenzofuran-4-yl)pyridin-2-yl)-5-(trifluoromethyl)-1H-pyrazole-4-carboxylic acid]
15 | ≤ 0.5 nM | CCc1cc(NC2COc3cccc(-c4cccc(-n5ncc(C(=O)O)c5CC)n4)c32)ccc1C1CCN(C(=O)C2CC2)CC1 (single isomer, unassigned; (+)) [(+)-36-2, (+)-1-(6-(3-((4-(1-(Cyclopropanecarbonyl)piperidin-4-yl)-3-ethylphenyl)amino)-2,3-dihydrobenzofuran-4-yl)pyridin-2-yl)-5-ethyl-1H-pyrazole-4-carboxylic acid]
16 | ≤ 0.5 nM | Cc1cc(C2CCN(C(=O)C(C)C)CC2)ccc1NC1CCc2cccc(-c3cccc(-n4ncc(C(=O)O)c4C)n3)c21 (single isomer, unassigned; (+)) [(+)-46-1]
17 | ≤ 0.5 nM | CCc1cc(NC2CCc3cccc(-c4cccc(-n5ncc(C(=O)O)c5C)n4)c32)ccc1C1CCN(C(=O)C2CC2)CC1 (single isomer, unassigned; (+)) [(+)-46-6]
18 | ≤ 0.5 nM | CCOC(=O)N1CCC(c2ccc(NC3CCc4cccc(-c5cccc(-n6ncc(C(=O)O)c6CC)n5)c43)cc2CC)CC1 (single isomer, unassigned; (+)) [(+)-52-1]
